The test system of data set [1] is MCF-7 cells derived from human mammary cancer. In words: Inhibitory effect on proliferation of tumor cells (MTT survival rate) under 1% or 20% oxygen. The data set is classed as cell-based. To be noted: 10 to 100 μg/ml, 48 hours, 1% oxygen vs 20% oxygen. On the procedure:
MCF-7 cells derived from human mammary cancer were cultured in a RPMI medium (containing 5% bovine fetal serum). The cells were added with RKB-3564S and RKB-3564SAC in a series of dilution, cultured under the condition of 1% oxygen concentration or 20% oxygen concentration for 48 hours, then added with MTT reagent [3-(4,5-dimethyl-thiazol-2-yl)-2,5-diphenyltetrazolium bromide], and further cultured for 2 to 4 hours, and then the absorption at 570 nm was measured to calculate the survival rate.

Data set [2] deals with NF-κB. Kind of data set: Inhibitory effect on NF-κB activation by TPA (luciferase reporter, pGL3-NF1, in COS-7 cells). Type of data set: cell-based. To be noted: TPA 50 ng/ml, 10 to 100 μg/ml, 24 hours. The method, then: COS-7 cells maintained in a DMEM medium (containing 5% bovine fetal serum) were transfected with a plasmid (pGL3-NF1) containing 5xNF-κB binding sequence (5′-[…]-3′) (SEQ ID NO: 1) located upstream of the luciferase gene. The cells were added with TPA (50 ng/ml) and RKB-3564S and RKB-3564SAC in a series of dilution, and cultured for 24 hours, and then the activity of produced luciferase was measured to calculate the inhibitory effect on NF-κB activation by TPA.
(Reporter assays use an easily measured gene product as a stand-in for the process of interest.)

Data set [3] is described as follows: Solubility (physico-chemical properties). The data set is classed as physicochemical. On the procedure: The physico-chemical properties of […] are shown below. • Appearance: colorless powdery crystals • Melting point: 71.5-72° C. (dec.) • Molecular formula: C10H12O2 • High-resolution mass spectrum (HR-RABMS): (M+H)^+Found (m/z): 165.0868 Calcd. […] Insoluble in n-hexane.

Take `C/C=C/c1cccc(O)c1CO` [RKB-3564S]: in data set [1], the “inhibition of cell proliferation under 1% oxygen compared to 20% oxygen” value is reported as “significantly inhibited cell proliferation”. For the same compound, the “inhibition of transcription activation by NF-κB” value in data set [2] is reported as “inhibited transcription activation by NF-κB”. The “Solubility in methanol or dimethyl sulfoxide” value in data set [3] (methanol or dimethyl sulfoxide) is “easily soluble”. Besides, in data set [3] (n-hexane), the Solubility in n-hexane entry is “Insoluble”.
Turning to `C/C=C/c1cccc(OC(C)=O)c1COC(C)=O` [RKB-3564SAC], in data set [1], the “inhibition of cell proliferation under 1% oxygen compared to 20% oxygen” value is recorded as “significantly inhibited cell proliferation”. Moreover, in data set [2], the “inhibition of transcription activation by NF-κB” value is “inhibited transcription activation by NF-κB”.

These data come from patent US7528169B2, “Substance having antitumor/anti-inflammatory activity” (Riken, priority 2001, dated 2009).
